Laboratory results from patent US5773442A, “Benzamidine derivatives and pharmaceutical composition containing them” (Yamanouchi Pharmaceutical Co., Ltd., priority 1995, dated 1998).

Assays:
[1] = test system: platelet aggregation (PRP; ADP and collagen as triggers); assay: Ex vivo platelet aggregation-inhibiting activity in cynomolgus monkeys; details: 3 mg/kg via stomach tube, 20 μM ADP and 10 μg/ml collagen, mean ± SEM (n = 3)
Description: Ex vivo platelet aggregation-inhibiting activity in cynomolgus monkeys:
Cynomolgus monkeys that had been lightly anesthetized by intramuscular administration of ketamine hydrochloride were fixed on a work-bench, and a sample compound of the present invention as dissolved in 2 ml of […] was forcedly administered into its stomach via a stomach tube at a dose of 3 mg/kg. Before the administration and after the administration at a predetermined period of time, 3 ml (containing 1/10 times by volume of sodium citrate) of the blood was collected from the animal through its femoral vein. From the blood was obtained platelet-rich-plasma (PRP) of 300,000/μl, according to the De Marco et al's method (see J. clin. Invest., 77, 1272-1277, 1988). The PRP was adjusted at 3×10^8 /ml with an automatic blood cell counter (MEK-5158 Model, produced by Nihon Koden Co.) before use. Added thereto were 20 μM of ADP and 10 μg/ml of bovine tendon-derived collagen (produced by Niko Bioscience Co.) as triggers, whereby the aggregation of the platelets was caused in the PRP. The degree of the aggregation of the platelets was measured with a platelet aggregation meter (NBS Hematracer 801, produced by Niko Bioscience Co.). The platelet aggregation-inhibiting activity of the tested compound was represented by the inhibition percentage (%) relative to the maximum aggregation percentage of each animal before the addition of the compound thereto.

GPIIb/IIIa = biological target: T1, GPIIb/IIIa (Homo sapiens, UniProt P05106+P08514); assay: Bonding of fibrinogen to pure GPIIb/IIIa; assay type: binding; details: biotinated fibrinogen, 37° C., 3 hours
T1 construct: GPIIb/IIIa was purified according to a Fitzgerald et al's method; from tissue; host or cells: platelets (human, inferred from the cited Fitzgerald method)
T1 sequence (P08514 32-887 limits assumed): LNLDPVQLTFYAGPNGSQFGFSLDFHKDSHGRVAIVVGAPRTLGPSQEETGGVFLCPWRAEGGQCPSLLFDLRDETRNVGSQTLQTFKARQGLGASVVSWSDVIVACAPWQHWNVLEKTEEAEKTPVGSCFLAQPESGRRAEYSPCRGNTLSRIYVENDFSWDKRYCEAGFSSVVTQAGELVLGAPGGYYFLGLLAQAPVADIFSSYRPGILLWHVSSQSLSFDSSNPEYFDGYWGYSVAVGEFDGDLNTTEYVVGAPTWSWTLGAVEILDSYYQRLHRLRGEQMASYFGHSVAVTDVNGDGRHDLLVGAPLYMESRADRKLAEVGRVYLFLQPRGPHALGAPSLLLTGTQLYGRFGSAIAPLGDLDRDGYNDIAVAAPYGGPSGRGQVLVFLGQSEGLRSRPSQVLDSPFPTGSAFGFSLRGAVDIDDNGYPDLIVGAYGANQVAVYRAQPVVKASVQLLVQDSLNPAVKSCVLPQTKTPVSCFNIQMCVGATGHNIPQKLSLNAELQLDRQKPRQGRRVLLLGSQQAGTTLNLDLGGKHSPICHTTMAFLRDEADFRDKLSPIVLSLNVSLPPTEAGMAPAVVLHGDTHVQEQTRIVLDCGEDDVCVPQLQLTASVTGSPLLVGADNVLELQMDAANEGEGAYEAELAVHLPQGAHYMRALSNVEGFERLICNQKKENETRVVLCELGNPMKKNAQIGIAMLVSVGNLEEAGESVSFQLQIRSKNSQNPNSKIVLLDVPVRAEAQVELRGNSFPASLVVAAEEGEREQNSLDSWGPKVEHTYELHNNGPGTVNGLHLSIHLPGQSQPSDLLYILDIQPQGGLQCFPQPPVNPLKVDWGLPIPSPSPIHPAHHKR
T1 sequence (P08514 891-1039 limits assumed): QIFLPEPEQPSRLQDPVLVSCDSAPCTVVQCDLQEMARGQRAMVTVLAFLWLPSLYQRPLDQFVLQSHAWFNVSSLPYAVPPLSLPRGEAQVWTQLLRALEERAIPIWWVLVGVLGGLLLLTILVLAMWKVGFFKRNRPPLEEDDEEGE
T1 sequence (P05106 27-788): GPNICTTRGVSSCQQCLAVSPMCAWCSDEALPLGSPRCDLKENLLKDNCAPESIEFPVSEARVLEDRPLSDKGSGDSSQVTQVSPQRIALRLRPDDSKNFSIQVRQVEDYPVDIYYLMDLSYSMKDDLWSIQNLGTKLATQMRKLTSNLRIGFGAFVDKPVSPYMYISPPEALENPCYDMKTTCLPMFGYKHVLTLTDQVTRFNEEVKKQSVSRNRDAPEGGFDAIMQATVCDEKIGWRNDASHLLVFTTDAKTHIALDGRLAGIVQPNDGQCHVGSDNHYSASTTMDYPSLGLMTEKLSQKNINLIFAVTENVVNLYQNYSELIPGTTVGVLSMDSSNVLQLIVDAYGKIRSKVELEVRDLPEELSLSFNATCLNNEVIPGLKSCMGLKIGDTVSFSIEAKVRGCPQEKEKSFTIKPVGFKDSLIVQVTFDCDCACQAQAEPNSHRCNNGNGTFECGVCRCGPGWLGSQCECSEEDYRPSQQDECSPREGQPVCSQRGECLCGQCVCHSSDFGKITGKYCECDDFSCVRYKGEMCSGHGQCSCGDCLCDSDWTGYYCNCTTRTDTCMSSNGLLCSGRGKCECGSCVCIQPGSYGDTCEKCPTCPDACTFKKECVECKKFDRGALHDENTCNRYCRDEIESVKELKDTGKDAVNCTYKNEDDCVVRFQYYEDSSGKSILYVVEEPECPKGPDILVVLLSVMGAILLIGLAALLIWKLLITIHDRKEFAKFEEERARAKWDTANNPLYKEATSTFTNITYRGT
Description: Bonding of fibrinogen to pure GPIIb/IIIa: GPIIb/IIIa was purified according to a Fitzgerald et al's method. Fibrinogen was biotinated with NHS-LC-Biotin (manufactured by Pierce Co.). The pure GPIIb/IIIa was added to TBS (20 mM Tris-HCl, pH 7.4, 150 mM NaCl, 1 mM CaCl2, 1 mM MgCl2) at one μg/ml. 100 μl of the resulting solution was put into a 96-well plate (MaxiSorp™, manufactured by Nunc Co.) and left at 4° C. overnight. […] After the solution was removed, a sample compound to be tested and the biotinated fibrinogen were added to the plate and reacted at 37° C. for 3 hours. […] This was washed three times with 300 μl of T-TBS.

SMILES | platelet aggregation-inhibition ratio (%), 2 hours after [1] | platelet aggregation-inhibition ratio (%), 4 hours after [1] | platelet aggregation-inhibition ratio (%), 6 hours after [1] | platelet aggregation-inhibition ratio (%), 9 hours after [1] | platelet aggregation-inhibition ratio (%), 12 hours after [1] | platelet aggregation-inhibition ratio (%), 24 hours after [1] | IC50 (GPIIb/IIIa)
N=C(N)c1ccc(N2CCN(C3CCN(CC(=O)O)CC3)CC2=O)cc1 [Example 18, 4-[4-(4-Amidinophenyl)-3-oxo-1-piperazinyl]-1-piperidineacetic acid] | 86 ± 8.4% | 98 ± 0.9% | 75 ± 25% | 97 ± 1.7% | 99 ± 0.7% | 34 ± 11% | –
N=C(N)c1ccc(N2CC(=O)N(C3CCN(CC(=O)O)CC3)CC2=O)cc1 [Example 16, 4-[4-(4-amidinophenyl)-2,5-dioxo-1-piperazinyl]-1-piperidineacetic acid] | – | – | – | – | – | – | 10.4 nM
Cl.N=C(N)c1ccc(N2CCN(C3CCN(CC(=O)O)CC3CC(=O)O)CC2)cc1 (centres unmarked) [Example 8, 4-[4-(4-Amidinophenyl)-1-piperazinyl]-1,3-piperidinediacetic acid hydrochloride] | 57 ± 20% | 98 ± 1.0% | 98 ± 1.2% | 81 ± 19% | 100 ± 0% | 24 ± 9.1% | 8.4 nM
